Assay results published in US20190374554A1, “USE OF OXYGENATED CHOLESTEROL SULFATES (OCS) TO TREAT INFLAMMATORY SKIN DISEASE AND SKIN LESIONS” (Virginia Commonwealth University, priority 2016, published 2019).

What was measured:
[1] = Infusion compatibility: 25HC3S diluted in 0.9% sodium chloride infusion bag and eluted through infusion sets (potency, osmolality, pH, appearance); assay type: physicochemical
Method: A physical and chemical compatibility study was conducted at a 30 mg, 48 mg and 300 mg 25HC3S dose in 5% dextrose and 0.9% sodium chloride infusion bags. Descriptions of the two kinds of infusion sets tested with 25HC3S product diluted in 5% dextrose and 0.9% sodium chloride are listed in Table 15. The tubing in catalog number 2H8480 infusion set was composed of polyvinylchloride (PVC), while the tubing in catalog number 2C8858 was polyethylene lined except for a short pump segment (approximately 12 inches) which was composed of PVC.
25HC3S for Injection and Vehicle for 25HC3S for Injection, that had been stored at 2-8° C. for approximately 16 months, were used for the compatibility study. After constitution, 30 mg (1.0 mL of constituted product), 48 mg (1.6 mL of constituted product) or 300 mg (10 mL of constituted product) were added to 100 mL infusion bags of 5% dextrose and 0.9% sodium chloride, mixed thoroughly, and stored for 24 hours at room temperature and at 2-8° C. […] Taking into consideration the overfill per infusion bag and the additional volume introduced by adding the constituted 25HC3S product to each bag, the expected concentrations of 25HC3S were 0.28 mg/mL, 0.44 mg/mL, and 2.56 mg/mL in the infusion bags. Two kinds of infusion sets were then attached to the drug containing infusion bags, and the entire contents were eluted through the infusion sets at approximately 50 mL/hour at room temperature. Samples were collected from the 25HC3S prepared infusion bags at T=0 and at 24 hours, and from the total eluent passed through the infusion sets, and tested for 25HC3S concentration using HPLC. Solution visual appearance, osmolality (using method USP<785>), and pH (using method USP<791>) were also measured on the collected samples.

[2] = Drug solubility / drug loading in solvents and compositions; assay type: physicochemical
[3] = 0.9% sodium chloride, approx. 0.28 mg/mL, bag 24 h at 25° C., Baxter 2H8480
[4] = 0.9% sodium chloride, approx. 0.44 mg/mL, bag 24 h at 2-8° C., Baxter 2C8858
[5] = 0.9% sodium chloride, approx. 0.44 mg/mL, bag 24 h at 2-8° C., Baxter 2H8480
[6] = 0.9% sodium chloride, approx. 0.44 mg/mL, bag 24 h at 25° C., Baxter 2C8858
[7] = 0.9% sodium chloride, approx. 0.44 mg/mL, bag 24 h at 25° C., Baxter 2H8480
[8] = 0.9% sodium chloride, approx. 2.56 mg/mL, bag 24 h at 2-8° C., Baxter 2C8858
[9] = 0.9% sodium chloride, approx. 2.56 mg/mL, bag 24 h at 2-8° C., Baxter 2H8480
[10] = 0.9% sodium chloride, approx. 2.56 mg/mL, bag 24 h at 25° C., Baxter 2C8858
[11] = 0.9% sodium chloride, approx. 2.56 mg/mL, bag 24 h at 25° C., Baxter 2H8480
[12] = sodium chloride, approximately 0.28 mg/mL 25HC3S
[13] = sodium chloride, approximately 0.44 mg/mL 25HC3S
[14] = sodium chloride, approximately 2.56 mg/mL 25HC3S

C[C@H](CCCC(C)(C)O)[C@H]1CC[C@H]2[C@@H]3CC=C4C[C@@H](OS(=O)(=O)[O-])CC[C@]4(C)[C@H]3CC[C@]12C.[Na+] [Formulation 25HC3S, 5-cholesten-3, 25-diol, 3-sulfate]
After Storage in Infusion Bag and Collection from Infusion Set Concentration [1, 3]: 0.272 mg/mL | After Storage in Infusion Bag and Collection from Infusion Set Osmolality [1, 3]: 276 mmol/kg | After Storage in Infusion Bag and Collection from Infusion Set pH [1, 3]: 5.78 | After Storage in Infusion Bag and Collection from Infusion Set % Remaining Compared to T = 0 [1, 4]: (100.2%) | After Storage in Infusion Bag and Collection from Infusion Set Concentration [1, 4]: 0.426 mg/mL | After Storage in Infusion Bag and Collection from Infusion Set Osmolality [1, 4]: 281 mmol/kg | After Storage in Infusion Bag and Collection from Infusion Set pH [1, 4]: 7.16 | After Storage in Infusion Bag and Collection from Infusion Set % Remaining Compared to T = 0 [1, 5]: (100.0%) | After Storage in Infusion Bag and Collection from Infusion Set Concentration [1, 5]: 0.434 mg/mL | After Storage in Infusion Bag and Collection from Infusion Set Osmolality [1, 5]: 282 mmol/kg | After Storage in Infusion Bag and Collection from Infusion Set pH [1, 5]: 7.13 | After Storage in Infusion Bag and Collection from Infusion Set % Remaining Compared to T = 0 [1, 6]: (100.0%) | After Storage in Infusion Bag and Collection from Infusion Set Concentration [1, 6]: 0.424 mg/mL | After Storage in Infusion Bag and Collection from Infusion Set Osmolality [1, 6]: 288 mmol/kg | After Storage in Infusion Bag and Collection from Infusion Set pH [1, 6]: 7.20 | After Storage in Infusion Bag and Collection from Infusion Set % Remaining Compared to T = 0 [1, 7]: (99.8%) | After Storage in Infusion Bag and Collection from Infusion Set Concentration [1, 7]: 0.433 mg/mL | After Storage in Infusion Bag and Collection from Infusion Set Osmolality [1, 7]: 286 mmol/kg | After Storage in Infusion Bag and Collection from Infusion Set pH [1, 7]: 7.09 | After Storage in Infusion Bag and Collection from Infusion Set % Remaining Compared to T = 0 [1, 8]: (99.8%) | After Storage in Infusion Bag and Collection from Infusion Set Concentration [1, 8]: 2.520 mg/mL | After Storage in Infusion Bag and Collection from Infusion Set Osmolality [1, 8]: 283 mmol/kg | After Storage in Infusion Bag and Collection from Infusion Set pH [1, 8]: 5.70 | After Storage in Infusion Bag and Collection from Infusion Set % Remaining Compared to T = 0 [1, 9]: (100.0%) | After Storage in Infusion Bag and Collection from Infusion Set Concentration [1, 9]: 2.530 mg/mL | After Storage in Infusion Bag and Collection from Infusion Set Osmolality [1, 9]: 283 mmol/kg | After Storage in Infusion Bag and Collection from Infusion Set pH [1, 9]: 5.72 | After Storage in Infusion Bag and Collection from Infusion Set % Remaining Compared to T = 0 [1, 10]: (99.6%) | After Storage in Infusion Bag and Collection from Infusion Set Concentration [1, 10]: 2.520 mg/mL | After Storage in Infusion Bag and Collection from Infusion Set Osmolality [1, 10]: 279 mmol/kg | After Storage in Infusion Bag and Collection from Infusion Set pH [1, 10]: 5.83 | After Storage in Infusion Bag and Collection from Infusion Set % Remaining Compared to T = 0 [1, 11]: (100.4%) | After Storage in Infusion Bag and Collection from Infusion Set Concentration [1, 11]: 2.460 mg/mL | After Storage in Infusion Bag and Collection from Infusion Set Osmolality [1, 11]: 283 mmol/kg | After Storage in Infusion Bag and Collection from Infusion Set pH [1, 11]: 5.81 | deviation of 25HC3S concentrations from the initial T=0 time point ([1]; 0.9% sodium chloride, after 24 hours at room temperature and at 2-8° C., and after elution through infusion sets): ≤ 2.0% | osmolality trend ([1]; sodium chloride drug containing solutions): no consistent trends over time in the infusion bag or after elution through the infusion sets | solution visual appearance ([1]; sodium chloride, all three concentrations, after 24 hours in bags and after elution): remained as clear and colorless solutions | decrease of pH over 24 hours in the infusion bags [1, 12]: ~0.5 pH unit | pH change after elution through the infusion sets [1, 12]: decrease by approximately a tenth of a pH | pH change after elution through the infusion sets [1, 13]: decrease by a few tenths of a pH | pH trend over time in the infusion bags [1, 13]: no consistent trends over time in the infusion bags | pH change after elution through the infusion sets [1, 14]: drop by a few tenths of a pH | pH change over time in the infusion bags [1, 14]: slight decrease by a tenth of a pH | state of drug in the prepared compositions ([2]; 6 wt % 25HC3S, compositions of Tables 31 and 32): all in solution | maximum drug loading achieved ([2]; Carbopol based creams or gels): 1 wt % | drug solubility ([2]; in EtOH): ~3 mg/mL | drug solubility ([2]; in PEG 400): ~130 mg/mL | drug solubility ([2]; in PG): ~30 mg/mL
